We go through 18 compounds from patent US12180156B2 (priority 2020, dated 2024).

One data set relates to FIPV. Briefly: Inhibitory activity against FIPV in cell culture (Table 1). As to conditions: Alphacoronavirus 1, cell culture. It counts as cell-based.
The next data set has as its target SARS-CoV-2 3CLpro (Severe acute respiratory syndrome coronavirus 2 (2019-nCoV) (SARS-CoV-2), UniProt P0DTD1). Briefly: biochemical. It counts as biochemical.
The nature of data set [1]: Nonspecific cytotoxic effects (CytoTox 96 assay). The data set is classed as cell-based. As to conditions: African green monkey (Vero E6) and cat (CRFK); Vero E6 and CRFK cells, 72 hr. On the procedure:
(§1) Nonspecific cytotoxic effects. […] Confluent cells grown in 96-well plates were incubated with various concentrations (1 to 100 μM) of each compound for 72 hr. Cell cytotoxicity was measured by a CytoTox 96 nonradioactive cytotoxicity assay kit (Promega, Madison, WI), and the CC50 values were calculated using a variable slope by GraphPad Prism software (Table 2).

For data set [2], the system named is SARS-CoV-2. Briefly: Cell-based assay for antiviral activity in A549-ACE2 cells. The conditions noted are these: Severe acute respiratory syndrome coronavirus 2, mean ± standard deviation.
The test system of data set [3] is SARS-CoV-2. Briefly: Cell-based assay for antiviral activity, plaque reduction in Vero E6 cells. As to conditions: mean ± standard deviation.
The next data set addresses SARS-CoV2 (enzyme) (Severe acute respiratory syndrome coronavirus 2 (2019-nCoV) (SARS-CoV-2), UniProt P0DTD1). Briefly: Inhibitory activity against SARS-CoV2 enzyme (Table 1). It counts as biochemical.
Another data set relates to Vero E6 and CRFK cells. Briefly: Nonspecific cytotoxic effects (CytoTox 96 assay). The data set is classed as cell-based. On the procedure:
as §1

Data set [4] deals with SARS-CoV-2. As to conditions: cited from earlier work.
Data set [5] relates to SARS-CoV-2. The data set is classed as in vivo, K18-hACE2 mice. The conditions noted are these: for lung edema average score: score 0-4.
Setting [6] is: Severe acute respiratory syndrome coronavirus 2, Vero C1008, read-out: EC50 (μM) VeroE6, VeroE6 cells.
Where [7] appears, read: read-out: EC50 (μM) VeroE6, VeroE6 cells.

Each structure is given as a SMILES string. Read-outs that look alike come from different tables or passages of the source.

Consider `[2H]c1c([2H])c([2H])c(C([2H])([2H])OC(=O)N[C@@H](CC(C)C)C(=O)N[C@@H](C[C@@H]2CCNC2=O)C(O)S(=O)(=O)[O-])c([2H])c1[2H].[Na+]` (stereo in doubt) [Deuterated GC376-No1], for which the EC50 (usually the midpoint of the concentration-response curve) in the data set with FIPV stood at 0.08 µM.
For `[2H]c1c([2H])c([2H])c(COC(=O)N[C@@H](CC(C)C)C(=O)N[C@@H](C[C@@H]2CCNC2=O)C(OC(=O)CCCCC)S(=O)(=O)[O-])c([2H])c1[2H].[Na+]` (stereo partly drawn) [Compound 8, Sodium (5S,8S)-5-isobutyl-3,6,11-trioxo-8-(((S)-2-oxopyrrolidin-3-yl)methyl)-1-(phenyl-d5)-2,10-dioxa-4,7-diazahexadecane-9-sulfonate], at SARS-CoV-2 3CLpro, the IC50 (usually the concentration that inhibits the measured activity by half) came out at 680 ± 350 nM; the “potency (IC50) in the enzyme assay compared to aldehyde and bisulfite counterparts” value is reported as “significantly increased IC50 values”. The CC50 (usually the concentration at which the toxic effect on the cells reaches its halfway point) at 72 h in data set [1] is more than 100000 nM.
In the case of `[2H]c1c([2H])c([2H])c(COC(=O)N[C@@H](CC(C)C)C(=O)N[C@@H](C[C@@H]2CCNC2=O)C(O)S(=O)(=O)[O-])c([2H])c1[2H].[Na+]` (stereo partly drawn) [Compound 7, Sodium (2S)-1-hydroxy-2-((S)-4-methyl-2-((((phenyl-d5)methoxy)carbonyl)amino)pentanamido)-3-((S)-2-oxopyrrolidin-3-yl)propane-1-sulfonate], the concentration for a half-maximal effect (EC50) was 0.1 ± 0.01 µM with SARS-CoV-2 [2], 0.068 to 0.086 µM in the data set on SARS-CoV-2 [3] (setting [6]) and 0.079 ± 0.01 µM in the data set with SARS-CoV-2 [3] (setting [7]). In data set [1], this compound showed a cytotoxic concentration (CC50) at 72 h of more than 100000 nM.
Compound `[2H]C([2H])(OC(=O)N[C@@H](CC(C)C)C(=O)N[C@H](C=O)C[C@@H]1CCNC1=O)c1ccccc1` [Deuterated GC373-No2] yielded an EC50 in the data set on FIPV of 0.05 µM.
In the case of `[2H]C([2H])(OC(=O)N[C@@H](CC(C)C)C(=O)N[C@@H](C[C@@H]1CCNC1=O)C(OC(C)=O)S(=O)(=O)[O-])c1ccccc1.[Na+]` (stereo partly drawn) [Compound 3, Sodium (5S,8S)-5-isobutyl-3,6,11-trioxo-8-(((S)-2-oxopyrrolidin-3-yl)methyl)-1-phenyl-2,10-dioxa-4,7-diazadodecane-9-sulfonate-1,1-d2], at SARS-CoV-2 3CLpro, inhibition was half-maximal at 710 ± 60 nM (IC50); the “potency (IC50) in the enzyme assay compared to aldehyde and bisulfite counterparts” value is on record as “significantly increased IC50 values”. In addition, the cytotoxic concentration (CC50) at 72 h in data set [1] was more than 100000 nM.
The matching figures for `[2H]c1c([2H])c([2H])c(C([2H])([2H])OC(=O)N[C@@H](CC(C)C)C(=O)N[C@@H](C[C@@H]2CCNC2=O)C(OC(=O)CCCCC)S(=O)(=O)[O-])c([2H])c1[2H].[Na+]` (stereo partly drawn) [Compound 11, Sodium (5S,8S)-5-isobutyl-3,6,11-trioxo-8-(((S)-2-oxopyrrolidin-3-yl)methyl)-1-(phenyl-d5)-2,10-dioxa-4,7-diazahexadecane-9-sulfonate-1,1-d2]: 770 ± 120 nM, “significantly increased IC50 values” and more than 100000 nM.
Turning to `[2H]c1c([2H])c([2H])c(C([2H])([2H])OC(=O)N[C@@H](CC(C)C)C(=O)N[C@H](C=O)C[C@@H]2CCNC2=O)c([2H])c1[2H]` [Deuterated GC373-No1], the EC50 in the data set on FIPV came out at 0.05 µM.
Regarding `CC(C)C[C@H](NC(=O)OCc1ccccc1)C(=O)N[C@H](C=O)C[C@@H]1CCNC1=O` [Parental aldehyde, reference compound], a half-maximal response with FIPV (EC50) required 0.05 µM.
For `[2H]C([2H])(OC(=O)N[C@@H](CC(C)C)C(=O)N[C@@H](C[C@@H]1CCNC1=O)C(OC(=O)CCCCC)S(=O)(=O)[O-])c1ccccc1.[Na+]` (stereo partly drawn) [Compound 4, Sodium (5S,8S)-5-isobutyl-3,6,11-trioxo-8-(((S)-2-oxopyrrolidin-3-yl)methyl)-1-phenyl-2,10-dioxa-4,7-diazahexadecane-9-sulfonate-1,1-d2], on SARS-CoV-2 3CLpro, 800 ± 100 nM corresponded to half-maximal inhibition (IC50); the “potency (IC50) in the enzyme assay compared to aldehyde and bisulfite counterparts” value is on record as “significantly increased IC50 values”. The CC50 at 72 h in data set [1] was more than 100000 nM.
`[2H]c1c([2H])c([2H])c(C([2H])([2H])OC(=O)N[C@@H](CC(C)C)C(=O)N[C@H](C=O)C[C@@H]2CCNC2=O)c([2H])c1[2H]` [Compound 9, (Phenyl-d5)methyl-d2 ((S)-4-methyl-1-oxo-1-(((S)-1-oxo-3-((S)-2-oxopyrrolidin-3-yl)propan-2-yl)amino)pentan-2-yl)carbamate] registered a CC50 at 72 h in data set [1] of more than 100000 nM.
On to `[2H]c1c([2H])c([2H])c(COC(=O)N[C@@H](CC(C)C)C(=O)N[C@H](C=O)C[C@@H]2CCNC2=O)c([2H])c1[2H]` [Compound 6, (Phenyl-d5)methyl ((S)-4-methyl-1-oxo-1-(((S)-1-oxo-3-((S)-2-oxopyrrolidin-3-yl)propan-2-yl)amino)pentan-2-yl)carbamate], for which the EC50 in the data set on SARS-CoV-2 [2] is 0.075 ± 0.01 µM; in the data set on SARS-CoV-2 [3] (setting [6]), 0.068 to 0.086 µM; in the data set on SARS-CoV-2 [3] (setting [7]) it was 0.077 ± 0.01 µM. For the same compound, the CC50 at 72 h in [1] is more than 100000 nM.
Take `[2H]C([2H])(OC(=O)N[C@@H](CC(C)C)C(=O)N[C@@H](C[C@@H]1CCNC1=O)C(OC(=O)CCCCC)S(=O)(=O)[O-])c1ccccc1.[Na+]` (stereo partly drawn) [Prodrug of GC1129-No2]: the figures for the EC50 in the data set on FIPV and on SARS-CoV2 (enzyme) were 0.06 µM and 0.8 µM, respectively.
The matching figures for `[2H]C([2H])(OC(=O)N[C@@H](CC(C)C)C(=O)N[C@@H](C[C@@H]1CCNC1=O)C(OC(C)=O)S(=O)(=O)[O-])c1ccccc1.[Na+]` (stereo partly drawn) [Prodrug of GC1129-No1]: 0.06 µM and 0.7 µM.
As for `[2H]C([2H])(OC(=O)N[C@@H](CC(C)C)C(=O)N[C@H](C=O)C[C@@H]1CCNC1=O)c1ccccc1` [Compound 1, Phenylmethyl-d2 ((S)-4-methyl-1-oxo-1-(((S)-1-oxo-3-((S)-2-oxopyrrolidin-3-yl)propan-2-yl)amino)pentan-2-yl)carbamate], the EC50 is 0.086 ± 0.01 µM in the data set with SARS-CoV-2 [2], 0.068 to 0.086 µM in the data set with SARS-CoV-2 [3] (setting [6]) and 0.068 ± 0.01 µM in the data set with SARS-CoV-2 [3] (setting [7]). Besides, the CC50 at 72 h in data set [1] is more than 100000 nM.
In turn, `CC(C)C[C@H](NC(=O)OCc1ccccc1)C(=O)N[C@@H](C[C@@H]1CCNC1=O)C(O)S(=O)(=O)O` (stereo partly drawn) [Compound 10, Sodium(2S)-1-hydroxy-2-((S)-4-methyl-2-((((phenyl-d5)methoxy-d2)carbonyl)amino)pentanamido)-3-((S)-2-oxopyrrolidin-3-yl)propane-1-sulfonate] gave a half-maximal cytotoxic concentration (CC50) with Vero E6 and CRFK cells (Vero E6 and CRFK cells, 72 hr) of more than 100000 nM.
On to `CC(C)C[C@H](NC(=O)OCc1ccccc1)C(=O)N[C@@H](C[C@@H]1CCNC1=O)C(O)S(=O)(=O)[O-].[Na+]` (stereo partly drawn) [GC376, reference compound], for which the results for the EC50 in the data set with SARS-CoV-2 [3] (setting [6]) and in the data set with FIPV were 0.23 ± 0.01 µM and 0.05 µM, respectively. Moreover, the survival result in the data set with SARS-CoV-2 [4] (given three hours after virus inoculation that led to 100% fatality, versus vehicle) is “no difference in survival”. In addition, in the data set on SARS-CoV-2 [4] (given three hours after virus inoculation, versus vehicle-treated controls), the “viral load and inflammation in the lungs” value was “reduced viral load and inflammation”. Moreover, the cytotoxicity result in the data set with Vero E6 and CRFK cells (up to 100 μM) was “did not show any cytotoxicity”.
Take `[2H]C([2H])(OC(=O)N[C@@H](CC(C)C)C(=O)N[C@@H](C[C@@H]1CCNC1=O)C(O)S(=O)(=O)[O-])c1ccccc1.[Na+]` (stereo partly drawn) [Compound 2, Sodium (2S)-1-hydroxy-2-((S)-4-methyl-2-(((phenylmethoxy-d2)carbonyl)amino)pentan-amido)-3-((S)-2-oxopyrrolidin-3-yl)propane-1-sulfonate]: the results for the EC50 with SARS-CoV-2 [2], with SARS-CoV-2 [3] (setting [6]) and in the data set on SARS-CoV-2 [3] (setting [7]) were 0.069 ± 0.01 µM, 0.068 to 0.086 µM and 0.086 ± 0.02 µM, respectively. The compound further showed a half-maximal cytotoxic concentration (CC50) at 72 h in [1] of more than 100000 nM. In the data set with SARS-CoV-2 [5] (2 and 5 dpi, detection limit 200 PFU/g), the “pathological changes and infectious virus in the brains” value is listed as “neither pathological changes nor infectious virus was detected”. For the same compound, in the data set with SARS-CoV-2 [5] (2 dpi), the lung perivascular infiltrates result is given as “Mild perivascular infiltrates”. For the same compound, the “lung edema average score” value was 0 with SARS-CoV-2 [5] (2 dpi) and 2 in the data set with SARS-CoV-2 [5] (5 dpi). Moreover, the “lung virus titers versus vehicle” value in the data set on SARS-CoV-2 [5] (2 dpi, second experiment) was “statistically significant reduction of virus titers”. Moreover, the survival result in the data set with SARS-CoV-2 [5] (first experiment: 2×10^3 pfu per mouse, 100 mg/kg/day once a day from 1 dpi, 15 dpi) was “All compound 2-treated mice gradually gained body weight and were alive at the end of the study”. The body weight loss entry with SARS-CoV-2 [5] (first experiment: 2×10^3 pfu per mouse, 100 mg/kg/day, 5-10 dpi, versus vehicle) is listed as “loss was less severe compared to vehicle-treated mice”. Moreover, the “lung perivascular infiltrations average score” value in the data set on SARS-CoV-2 [5] (mouse, in vivo) stood at 2.
Consider `[2H]C([2H])(OC(=O)N[C@@H](CC(C)C)C(=O)N[C@@H](C[C@@H]1CCNC1=O)C(=O)C(=O)NCc1ccccc1)c1ccccc1` [Compound 5, Phenylmethyl-d2 ((S)-1-(((S)-4-(benzylamino)-3,4-dioxo-1-((S)-2-oxopyrrolidin-3-yl)butan-2-yl)amino)-4-methyl-1-oxopentan-2-yl)carbamate], for which, at SARS-CoV-2 3CLpro, the IC50 came out at 1310 ± 550 nM; the “potency (IC50) in the enzyme assay compared to aldehyde and bisulfite counterparts” value is given as “markedly decreased potency”. The compound further showed a half-maximal cytotoxic concentration (CC50) at 72 h in data set [1] of more than 100000 nM.
